In assay [1] the test system is B3 human anti-DNA antibodies. Description: Anti-peptide direct binding ELISA with B3. The following applies: direct binding ELISA; footnote: O.D. after two (2) hours. How it is done: (§1) Wells were coated with 10 μg/ml of the peptides, blocked with 1% BSA (bovine serum albumin) in PBS (pH 7.4), reacted with appropriately diluted plasma or monoclonal antibodies, incubated with anti-human or anti-mouse immunoglobulin enzyme conjugated to alkaline phosphatase and detected by addition of substrate (Sigma 100 Phosphatase Substrate Tablets) and color development using an Organon Teknika Microwell System spectrometer at wavelength of 405 nm.
The human monoclonal anti-DNA antibodies DIL 6 and B3 were derived from lupus patients by the hybridoma technique. […] In FIGS. 3 and 4, the peptides are referred to as denoted above or as follows; AS30 is R27, AS19 is R35, AS35 is R26, AS17 is R28 and AS6 is R18.
(§2) The peptides of the present invention were tested for their ability to bind directly with C72 murine anti-DNA antibodies and B3 human anti-DNA antibodies according to the method described hereinabove.
For orientation: An ELISA detects its analyte on a solid surface through an enzyme-linked reagent.

For assay [2], the target named is C72 anti-DNA antibody. Description: Competitive inhibition of C72 binding to R38 (5100). More on the design: species or system murine. The following applies: concentration of competitive inhibitor giving 50% inhibition, ELISA. An excerpt: A competitive inhibition study compared how each of the peptides competes with R38 (5100) for binding to the C72 anti-DNA antibody. Conducted according to the methods described hereinabove, the results of the study are disclosed in Table 4 below and are further elucidated by reference to FIG. 10.

The test system of assay [3] is C72 murine anti-DNA antibody. Description: Anti-peptide direct binding ELISA with C72. The following applies: for C72 Binding: direct binding ELISA, footnote: O.D. after one (1) hour; for binding of C72 murine anti-DNA antibody to laminin peptides (FIG. 1): ELISA, C72 conditioned medium in various dilutions. How it is done: as §1
The interaction of the C72 murine anti-DNA antibody with laminin peptides was analyzed by ELISA as described above. The C72 conditioned medium was diluted in PBS in various dilutions.
as §2

The test system of assay [4] is BALB/c urinary immunoglobulins. As to the kind of experiment: Binding of murine urinary immunoglobulins, BALB/c control urine. The following applies: pooled urine of BALB/c control mice. As to the method:
as §1
(§3) Thus, pooled urine from at least 5 mice (either MRL/1pr/1pr or control mice, e.g. BALB/c) was added to wells coated with R38′ (5200), R18 or DNA as described above and bound 5200 assayed by ELISA.
(§4) Each group is comprised of pooled urine.

Assay [5] relates to MRL/1pr/1pr urine antibodies. As to the kind of experiment: Binding of murine urinary immunoglobulins, MRL/1pr/1pr urine. More on the design: species or system mice. The following applies: pooled urine of MRL/1pr/1pr mice. As to the method:
as §1, §3, §4

For assay [6], the system named is C72 murine anti-DNA antibody. Description: Competitive inhibition of the binding of C72 to 5200. The following applies: after incubation of C72 with the inhibiting agent. How it is done: The binding of C72 to 5200 was tested before and after incubation with 5200, R38, R18, Heparin, DNA and DNase. […] The percent inhibition is the percent reduction of the O.D. after incubation with the inhibiting agent.

The subject of assay [7] is urine antibodies of lupus patients. As to the kind of experiment: Urine anti-peptide antibody ELISA in patients. In kind it is binding, human.
Assay [8] concerns the target C72 murine anti-DNA antibody. As to the kind of experiment: competitive inhibition ELISA: peptide in solution against binding of C72 to coated 5100.

No end group written: not given here.

As usually defined, the IC50 is the concentration that gives 50% inhibition. Lower therefore signals inhibition by little substance.

`CC[C@H](C)[C@H](NC(=O)[C@H](CC(N)=O)NC(=O)[C@H](CC(C)C)NC(=O)[C@H](CC(=O)O)NC(=O)[C@H](CC(C)C)NC(=O)[C@H](CCCNC(=N)N)NC(=O)[C@@H](NC(=O)[C@H](CCCCN)NC(=O)[C@H](Cc1ccc(O)cc1)NC(=O)CNC(=O)[C@H](CCC(=O)O)NC(=O)[C@@H](N)CCCCN)C(C)C)C(=O)N[C@H](C(=O)N[C@@H](CC(C)C)C(=O)N[C@@H](CCC(=O)O)C(=O)N[C@@H](Cc1ccccc1)C(=O)N[C@@H](CCC(=O)O)C(=O)N[C@H](C(=O)N[C@H](C(=O)N[C@@H](CO)C(=O)N[C@@H](CCCCN)C(=O)O)[C@@H](C)O)[C@@H](C)O)[C@@H](C)O` [Peptide 5107]: in assay [1], the “B3 Binding” value is given as 0.01 O.D. Further, the “50% Inhibition of C72 binding to mouse R38 (5100)” value (shortened to “50% Inhibition of C72 binding”) in assay [2] was 85 µg/mL. Also, the “C72 Binding” value in assay [3] worked out at 0.05 O.D.
Regarding AEGYAVALDLNITLEFATTSA [Peptide 5104], the “B3 Binding” value in assay [1] is on record as 0.02 O.D. For the same molecule, the “C72 Binding” value in assay [3] is 0.06 O.D.
Consider “DGKWHTVKTEYIKRKAF [Peptide R28, laminin derived peptide, residues 2779-2795]”, for which the “C72 Binding” value in assay [3] stood at 0.01 O.D.
As for DNA, the “Binding of murine urinary immunoglobulins to antigen” value in assay [4] and in assay [5] was “U.D” throughout. The “inhibition of the binding of C72 to 5200 (FIG. 2)” value in assay [6] was “inhibition”.
For the molecule KAGYKVRLALNITLAFRTTSK [Peptide 5108], the “B3 Binding” value in assay [1] is on record as 1.93 O.D. Moreover, in assay [2], the “50% Inhibition of C72 binding” value came to 2 µg/mL. Besides, the “C72 Binding” value in assay [3] came to 2.75 O.D. Moreover, the “Urine anti-5108 O.D. (Mean + S.E.)” value in assay [7] (Example 9, renal disease absent, 2 samples) was 0.064 ± 0.05 O.D; in assay [7] (Example 9, renal disease present, 22 samples) it was 0.672 ± 0.1 O.D.
For “KATPMLKMRTSFHGCIK [Peptide R37, laminin derived peptide, residues 2615-2631]”, in assay [3], the “binding of C72 murine anti-DNA antibody to laminin peptides (FIG. 1)” value is on record as “binding” and the “C72 Binding” value amounted to 1.8 O.D.
KEGYKVELDLNITLEFETTSK [Peptide 5105]: the “B3 Binding” value in assay [1] was determined as 0.02 O.D. Also, in assay [3], the “C72 Binding” value is 0.07 O.D.
On to KEGYKVELDLNITLEFRTTSK [Peptide 5106], for which the “B3 Binding” value in assay [1] is recorded as 0.16 O.D. The “50% Inhibition of C72 binding” value in assay [2] turned out to be 2.5 µg/mL. For the same molecule, the “C72 Binding” value in assay [3] was 1.9 O.D.
Regarding KEGYKVQSDLNITLEFRTSSQ [Peptide 5300], the “B3 Binding” value in assay [1] was determined as 0.03 O.D. In addition, the “50% Inhibition of C72 binding” value in assay [2] stood at 85 µg/mL. Moreover, in assay [3], the “C72 Binding” value amounted to 0.03 O.D.
Regarding KEGYKVRLALNITLEFRTTSK [Peptide 5109], in assay [1], the “B3 Binding” value is 1.94 O.D. Besides, the “50% Inhibition of C72 binding” value in assay [2] stood at 0.7 µg/mL. In addition, the “C72 Binding” value in assay [3] is on record as 2.72 O.D.
For KEGYKVRLDLNITLAFRTTSK [Peptide 5110] the same measures were 1.83 O.D, 0.7 µg/mL and 2.8 O.D.
For KEGYKVRLDLNITLEF [Peptide 5101] the same measures were 0.1 O.D, 5 µg/mL and 1.11 O.D.
Consider “KQNCLSSRASFRGCVRNLRLSR [Peptide R30, laminin derived peptide, residues 3011-3032]”, for which, in assay [3], the “binding of C72 murine anti-DNA antibody to laminin peptides (FIG. 1)” value is “binding” and the “C72 Binding” value turned out to be 0.75 O.D.
Turning to LDLNITEFRTTSK [Peptide 5103], the “B3 Binding” value in assay [1] turned out to be 0.02 O.D. The “C72 Binding” value in assay [3] is 0.03 O.D.
Regarding “RPVRHAQCRVCDGNSTNPRERH [Peptide R18, peptide from the N-terminal of mouse laminin alpha chain, residues 42-63, reference compound]”, the “Binding of murine urinary immunoglobulins to antigen” value in assay [4] and in assay [5] was “U.D” throughout. Moreover, the “C72 Binding” value in assay [3] stood at 0.01 O.D.
Take VQSDVNITLEFR [Peptide 5111]: the “B3 Binding” value in assay [1] is recorded as 0.01 O.D. For the same molecule, the “C72 Binding” value in assay [3] was found to be 0.01 O.D.
Turning to VRLDLNITLEFR [Peptide 5102], in assay [1], the “B3 Binding” value is 0.02 O.D. In addition, the “50% Inhibition of C72 binding” value in assay [2] is 30 µg/mL. Further, the “C72 Binding” value in assay [3] amounted to 0.1 O.D.
Regarding heparin, in assay [6], the “inhibition of the binding of C72 to 5200 (FIG. 2)” value is “inhibition”.
In assay [8], KEGYKVRLALNITLEFRTTSK [5109 peptide (Ala subst. of 5100 a.a. 9)] gave an IC50 of 0.7 µg/mL.
Regarding KAGYKVRLALNITLAFRTTSK [5108 peptide (Ala subst. of 5100 at all negative a.a.)], the IC50 in assay [8] came to 2 µg/mL.
Same read-out and setting: the same measure for KEGYKVRLDLNITLEFETTSK [5107 peptide (charge subst. to neg. at 5100 a.a. 17)]: 85 µg/mL; for KEGYKVRLDLNITLAFRTTSK [5110 peptide (Ala subst. of 5100 a.a. 15)]: 0.7 µg/mL.
Same read-out and setting: the same measure for VRLDLNITLEFR [5102 peptide (Res. 6-17 of 5100)]: 30 µg/mL.
Still for that read-out and setting: the same measure for KEGYKVRLDLNITLEF [5101 peptide (Res. 1-16 of 5100)]: 5 µg/mL; for KEGYKVELDLNITLEFRTTSK [5106 peptide (charge subst. to neg. at 5100 a.a. 7)]: 2.5 µg/mL.
Turning to KEGYKVRLDLNITLEFRTTSK [R38 peptide (5100), mouse R38], in assay [8], the IC50 amounted to 10 µg/mL.
Same read-out and setting: the same measure for KEGYKVRLDLNTTLEFRTTSK [5200 peptide (R38′), mouse R38 analog]: 10 µg/mL; for KEGYKVQSDVNITLEFRTSSQ [5300 peptide, human R38]: 85 µg/mL.

The record behind these values is patent US20100285146A1, “PEPTIDES AND METHODS FOR THE TREATMENT OF SYSTEMIC LUPUS ERYTHEMATOSUS” (priority 2007, published 2010).
